Patent publication EP0394982A2, “Anthracycline derivatives with cytostatic activity” (BEHRINGWERKE Aktiengesellschaft, priority 1989, dated 1990)
In brackets after ≈: the same amount, converted by molar mass. Where two headings read alike, the source gives them in different places.

Tested on: L1210 Leukämiezellen
Assay: Colony formation of L1210 leukemia cells in soft agar (cytotoxicity in vitro)
Format: cell-based, Maus
Conditions: Mus musculus, colonies > 60 µm counted
Text: Die zytostatische Wirksamkeit der erfindungsgemäßen Verbindungen wurde anhand von L1210 Leukämiezellen der Maus getestet. Hierzu wurde die Koloniebildung von L1210 Leukämiezellen in Agarplatten herangezogen. Diese Methode dient zum Nachweis des Einflusses der Testsubstanzen auf das Wachstumsverhalten der Zellen über 1 Stunde oder über mehrere Generationen. Bei einer Zellzykluszeit von 10-12 Stunden werden dabei in der Testzeit von 7 Tagen etwa 14 aufeinanderfolgende Generationen beobachtet. Die erfindungsgemäßen zytostatisch wirksamen Substanzen bewirken in diesem Test eine Reduktion der zu beobachtenden Koloniezahl gegenüber einer unbehandelten Kontrollprobe.
Verfahrensweise zur Ermittlung der Koloniebildung von L1210 Leukämiezellen in Soft-Agar
500 Leukämiezellen pro Platte wurden mit unterschiedlichen Konzentrationen der Testsubstanz 1 Stunde bei 37°C inkubiert. Anschließend wurden die Zellen zweimal mit McCoy5A-Medium gewaschen und schließlich in Petrischalen nach Zugabe von 0,3 % Agar ausgegossen. Kontrollen wurden lediglich mit frischem Medium inkubiert. Anstelle der einstündigen Inkubation wurden in manchen Fällen unterschiedliche Konzentrationen und Testsubstanzen der oberen Agarschicht zugemischt, um so eine kontinuierliche Exposition der Zellen über die gesamte Inkubationszeit zu erreichen. Nach Erstarren des Agars wurden die Platten im Brutschrank 7 Tage bei 37°C inkubiert (5 Vol.-% CO₂, 95 % relative Luftfeuchtigkeit). Anschließend wurde die Zahl der entstandenen Kolonien mit einem Durchmesser von mehr als 60 µm gezählt. Die Ergebnisse wurden angegeben als Koloniezahl in behandelten Agarplatten in Prozent der unbehandelten Kontrolle. Aus der so erhaltenen Dosiswirkungskurve wurde die IC₅₀ als Maß für die Wirksamkeit der Substanz ermittelt. Die Ergebnisse für die hier beschriebenen Verbindungen im Vergleich zu Adriamycin sind in Tabelle 1 zusammengefaßt.

[1] = L1210, 168 h, continuous exposure (substance mixed into upper agar layer), 7 days at 37°C, read-out: Dauerinkubation IC50
[2] = L1210, 1 h incubation at 37°C, cells washed, then 7 days in agar, read-out: 1h-Inkubation IC50

CC[C@@]1(O)C[C@H](O[C@H]2C[C@H](N(C)CC(=O)NCCN(C)C)[C@H](O)[C@H](C)O2)c2c(O)c3c(c(O)c2[C@H]1O)C(=O)c1cccc(O)c1C3=O [Beispiel 3]
IC50 [1]: 0.12 µg/mL (≈ 0.182 µM)
IC50 [2]: 0.26 µg/mL (≈ 0.395 µM)

CC[C@@]1(O)C[C@H](O[C@H]2C[C@H](N(C)CC(=O)NCCc3ccc(O)cc3)[C@H](O)[C@H](C)O2)c2c(O)c3c(c(O)c2[C@H]1O)C(=O)c1cccc(O)c1C3=O [Beispiel 6, 7-O-(3′-N-Methyl-3′-N-tyraminocarbonylmethyl-α-L-daunosaminyl)-β-rhodomycinon]
IC50 [1]: 0.41 µg/mL (≈ 0.58 µM)
IC50 [2]: 1.3 µg/mL (≈ 1.84 µM)

CC[C@@]1(O)C[C@H](O[C@H]2C[C@H](N(C)CC(=O)NCCc3c[nH]cn3)[C@H](O)[C@H](C)O2)c2c(O)c3c(c(O)c2[C@H]1O)C(=O)c1cccc(O)c1C3=O [Beispiel 5, 7-O-(3′-N-Histaminocarbonylmethyl-3′-N-methyl-α-L-daunosaminyl)-β-rhodomycinon]
IC50 [1]: 0.31 µg/mL (≈ 0.455 µM)
IC50 [2]: 1 µg/mL (≈ 1.47 µM)

CC[C@@]1(O)C[C@H](O[C@H]2C[C@H](N(C)CC(=O)NCCCCN)[C@H](O)[C@H](C)O2)c2c(O)c3c(c(O)c2[C@H]1O)C(=O)c1cccc(O)c1C3=O [Beispiel 4]
IC50 [1]: 0.35 µg/mL (≈ 0.532 µM)
IC50 [2]: 1.3 µg/mL (≈ 1.98 µM)

CC[C@@]1(O)C[C@H](O[C@H]2C[C@H](N(C)CC(=O)NCCc3c[nH]c4ccccc34)[C@H](O)[C@H](C)O2)c2c(O)c3c(c(O)c2[C@H]1O)C(=O)c1cccc(O)c1C3=O [Beispiel 7, 7-O-(3′-N-Methyl-3′-N-tryptaminocarbonylmethyl-α-L-daunosaminyl)-β-rhodomycinon]
IC50 [1]: 0.36 µg/mL (≈ 0.493 µM)
IC50 [2]: 1.2 µg/mL (≈ 1.64 µM)

CC[C@@]1(O)C[C@H](O[C@H]2C[C@H](N(C)CC(=O)NCCN)[C@H](O)[C@H](C)O2)c2c(O)c3c(c(O)c2[C@H]1O)C(=O)c1cccc(O)c1C3=O [Beispiel 2, 7-0-(3′-N-Ethylendiaminocarbonylmethyl-3′-N-methyl-α-L-daunosaminyl)-β-rhodomycinon]
IC50 [1]: 0.35 µg/mL (≈ 0.556 µM)
IC50 [2]: 1 µg/mL (≈ 1.59 µM)

CC[C@@]1(O)C[C@H](O[C@H]2C[C@H](N(C)CC(=O)NN)[C@H](O)[C@H](C)O2)c2c(O)c3c(c(O)c2[C@H]1O)C(=O)c1cccc(O)c1C3=O [Beispiel 1, 7-0-(3′-N-Hydrazinocarbonylmethyl-3′-N-methyl-α-L-daunosaminyl)-β-rhodomycinon]
IC50 [1]: 0.32 µg/mL (≈ 0.532 µM)
IC50 [2]: 0.21 µg/mL (≈ 0.349 µM)
